Test results from patent US10206909B2, “3-(1H-pyrrolo[2,3-B]pyridin-2-yl)-1H-pyrazolo[4,3-B]pyridines and therapeutic uses thereof” (Samumed, LLC, priority 2015, dated 2019).

Assays:
Format in all cases: cell-based
[1] = system: primary human mesenchymal stem cells (hMSCs); experiment: Chondrogenesis induction in mesenchymal stem cells (nodule count); conditions: 144 h, 6 days; for Emax: relative to TGF-β3 (10 ng/mL) positive control, read-out: Max. Activity as % TGF-β3 activity; for EC50: concentration required to induce 50% levels of chondrogenesis vs TGF-β3, read-out: Conc (nM) of 50% TGF-β3 activity
Method: Representative compounds were screened using primary human mesenchymal stem cells (hMSCs) to determine their ability to induce chondrogenesis (process by which cartilage is developed).
Human Mesenchymal Stem Cell Culture: Primary human mesenchymal stem cells (hMSCs) were purchased from Lonza (Walkersville, Md.) and expanded in Mesenchymal Stem Cell Growth Media (Lonza). Cells between passage 3 and 6 were used for the experiments.
Compound Screening: Each compound was dissolved in DMSO as a 10 mM stock and used to prepare compound source plates. Serial dilution (1:3, 6-point dose-response curves from 2700 nM to 10 nM) and compound transfer was performed using the ECHO 550 (Labcyte, Sunnyvale, Calif.) into 96-well clear bottom assay plates (Greiner Bio-One) with appropriate DMSO backfill for a final DMSO concentration of 0.03%. hMSCs were plated at 20,000 cells/well in 250 μL/well Incomplete Chondrogenic Induction Medium (Lonza; DMEM, dexamethasone, ascorbate, insulin-transferrin-selenium [ITS supplement], gentamycin-amphotericin [GA-1000], sodium pyruvate, proline and L-glutamine). TGF-β3 (10 ng/mL) was used as a positive control for differentiation while negative control wells were treated with 75 nL DMSO for normalization and calculating EC50 values. Cells were incubated at 37° C. and 5% CO2 for 6 days. To image chondrogenic nodules, the cells were fixed using 4% formaldehyde (Electron Microscopy Sciences), and stained with 2 μg/mL Rhodamine B (Sigma-Aldrich) and 20 μM Nile Red (Sigma-Aldrich) [Johnson K., et. al, A Stem Cell-Based Approach to Cartilage Repair, Science, (2012). 336(6082), 717-721]. The nodules imaged (4 images per well at 4× magnification) by excitation at 531 nm and emission at 625 nm and quantified using the CellInsight CX5 (Thermo Scientific). Number of nodules in each well was normalized to the average of 3 DMSO treated wells on the same plate using Excel (Microsoft Inc.). The normalized averages (fold change over DMSO) of 3 replicate wells for each compound concentration were calculated. Due to solubility limitations of some of the compounds, curve fitting was incomplete leading to inaccurate EC50 determinations.
Using TGF-β3 as a positive control, the concentration of representative compounds required to induce 50% levels of chondrogenesis is reported. In addition, the maximum activity of each compound and the respective dose that each compound reached maximum chondrogenesis activity is reported.

SW480 colon cancer cells = experiment: Cell viability assay (CellTiter-Blue); conditions: Homo sapiens; for EC50: 96 h, SW480 cell viability, four days, CellTiter-Blue; for inhibition at 10 µM: given where EC50 >10 μM, SW480 viability, read-out: percent inhibition at 10 μM
How it was run: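 Four-day viability readout in SW480 cells: compound at 0.0045–10 μM (1:3 series), DMSO controls in eight replicates, CellTiter-Blue fluorescence after ~3 h. Values are regression-derived EC50s, or percent inhibition at 10 μM when EC50 exceeds 10 μM.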

[2] = system: Wnt activity (Sp5-Luc reporter, SW480 colon carcinoma cells); experiment: Wnt activity screening assay: Sp5-Luc reporter gene assay in SW480 cells; conditions: Homo sapiens; for EC50: SW480 cells, overnight incubation; for inhibition at 10 µM: given where EC50 >10 μM, SW480, read-out: percent inhibition at 10 μM
How it was run: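 Luminescence (BrightGlo) read after overnight 37 °C exposure of Sp5-Luc SW480 reporter cells, 4,000/well in 1% FBS, to compound dosed 1:3 over 10 points from 10 μM with 0.1% DMSO. Values normalized to DMSO-only cells, fitted with variable-slope four-parameter model; where EC50 exceeds 10 μM, % inhibition at 10 μM reported.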

SMILES	Emax [1] [%]	EC50 (SW480 colon cancer cells) [µM]	EC50 [2] [µM]	inhibition at 10 µM [2] [%]	EC50 [1] [nM]	inhibition at 10 µM (SW480 colon cancer cells) [%]
CN(C)Cc1cncc(-c2ccc3[nH]nc(-c4cc5cccnc5[nH]4)c3n2)c1 [Compound 265, 1-(5-(3-(1H-Pyrrolo[2,3-b]pyridin-2-yl)-1H-pyrazolo[4,3-b]pyridin-5-yl)pyridin-3-yl)-N,N-dimethylmethanamine]	37	4.21	> 10	20.6		
FC1(F)CCN(Cc2cncc(-c3ccc4[nH]nc(-c5cc6cccnc6[nH]5)c4n3)c2)C1 [Compound 278, 5-(5-((3,3-Difluoropyrrolidin-1-yl)methyl)pyridin-3-yl)-3-(1H-pyrrolo[2,3-b]pyridin-2-yl)-1H-pyrazolo[4,3-b]pyridine]	134	0.345	0.104		100	
c1cnc2[nH]c(-c3n[nH]c4ccc(-c5cncnc5)nc34)cc2c1 [Compound 279, 5-(Pyrimidin-5-yl)-3-(1H-pyrrolo[2,3-b]pyridin-2-yl)-1H-pyrazolo[4,3-b]pyridine]	43	> 10	> 10	8		14.3
CN(C)CCNc1cc(F)cc(-c2ccnc3[nH]c(-c4n[nH]c5ccc(-c6ccncc6)nc45)cc23)c1 [Compound 466, N^1-(3-Fluoro-5-(2-(5-(pyridin-4-yl)-1H-pyrazolo[4,3-b]pyridin-3-yl)-1H-pyrrolo[2,3-b]pyridin-4-yl)phenyl)-N^2,N^2-dimethylethane-1,2-diamine]	17	> 10	> 10	8.6		16.8
CN(C)CCNc1cc(F)cc(-c2ccnc3[nH]c(-c4n[nH]c5ccc(-c6cncc(CNCC7CCCC7)c6)nc45)cc23)c1 [Compound 473, N^1-(3-(2-(5-(5-(((Cyclopentylmethyl)amino)methyl)pyridin-3-yl)-1H-pyrazolo[4,3-b]pyridin-3-yl)-1H-pyrrolo[2,3-b]pyridin-4-yl)-5-fluorophenyl)-N^2,N^2-dimethylethane-1,2-diamine]	111	2.26	4.67		900	
CN(C)CCOc1cncc(-c2ccc3[nH]nc(-c4cc5c(-c6cccnc6)ccnc5[nH]4)c3n2)c1 [Compound 563, N,N-Dimethyl-2-((5-(3-(4-(pyridin-3-yl)-1H-pyrrolo[2,3-b]pyridin-2-yl)-1H-pyrazolo[4,3-b]pyridin-5-yl)pyridin-3-yl)oxy)ethan-1-amine]	22	> 10	> 10	7.2		0
c1cc(-c2ccnc3[nH]c(-c4n[nH]c5ccc(-c6cncc(OCCN7CCCC7)c6)nc45)cc23)ccn1 [Compound 578, 3-(4-(Pyridin-4-yl)-1H-pyrrolo[2,3-b]pyridin-2-yl)-5-(5-(2-(pyrrolidin-1-yl)ethoxy)pyridin-3-yl)-1H-pyrazolo[4,3-b]pyridine]	40	> 10	> 10	7.7		14.7
CN1CCN(c2ccnc3[nH]c(-c4n[nH]c5ccc(-c6cn[nH]c6)nc45)cc23)CC1 [Compound 635, 3-(4-(4-Methylpiperazin-1-yl)-1H-pyrrolo[2,3-b]pyridin-2-yl)-5-(1H-pyrazol-4-yl)-1H-pyrazolo[4,3-b]pyridine]	60	> 10	> 10	13.4	300	13.3
O=C(CC1CCNCC1)Nc1cncc(-c2ccc3[nH]nc(-c4cc5c(-c6ccoc6)ccnc5[nH]4)c3n2)c1 [Compound 689, N-(5-(3-(4-(Furan-3-yl)-1H-pyrrolo[2,3-b]pyridin-2-yl)-1H-pyrazolo[4,3-b]pyridin-5-yl)pyridin-3-yl)-2-(piperidin-4-yl)acetamide]	102	> 10	> 10	10.9	10	9.2
c1csc(-c2ccnc3[nH]c(-c4n[nH]c5ccc(-c6cncc(OC7CCNCC7)c6)nc45)cc23)c1 [Compound 704, 5-(5-(Piperidin-4-yloxy)pyridin-3-yl)-3-(4-(thiophen-2-yl)-1H-pyrrolo[2,3-b]pyridin-2-yl)-1H-pyrazolo[4,3-b]pyridine]	51	> 10	3.71		300	49.5
